According to PubChem BioAssay AID330 (DTP/NCI, 2004):
Where “and” joins values, the source holds several entries; their conditions need not be identical. Equal values may be shown once. Toxic doses and inconclusive results are not listed. How the source made its calls: active means survival T/C of 150% or more; inactive means T/C below 125% in these data.

Test system: P388 leukemia ip, CD2F1 mice, survival T/C
Assay: NCI In Vivo Anticancer Drug Screen. Data for tumor model P388 Leukemia (intraperitoneal) in CD2F1 (CDF1) mice
Details: endpoint: median survival time, higher = longer survival
In short: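 Mice carrying the transplanted tumor received test compound or vehicle. Survival was recorded in each group, and the value is the treated-group measurement divided by that of the vehicle-treated control group.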

[1] = dose: 50.0 mg/kg/injection, schedule: Q01DX009 (ip), vehicle: Klucel (hydroxypropylcellulose) (HPC)
[2] = dose: 100.0 mg/kg/injection, schedule: Q01DX009 (ip), vehicle: Klucel (hydroxypropylcellulose) (HPC)
[3] = dose: 200.0 mg/kg/injection, schedule: Q01DX009 (ip), vehicle: Klucel (hydroxypropylcellulose) (HPC)
[4] = dose: 60.0 mg/kg/injection, schedule: Q01DX005 (ip), vehicle: saline
[5] = dose: 120.0 mg/kg/injection, schedule: Q01DX005 (ip), vehicle: saline
[6] = dose: 25.0 mg/kg/injection, schedule: Q01DX009 (ip), vehicle: saline with Tween-80
[7] = dose: 50.0 mg/kg/injection, schedule: Q01DX009 (ip), vehicle: saline with Tween-80
[8] = dose: 100.0 mg/kg/injection, schedule: Q04DX002 (ip), vehicle: saline
[9] = dose: 60.0 mg/kg/injection, schedule: Q01DX005 (ip), vehicle: saline with Tween-80
[10] = dose: 120.0 mg/kg/injection, schedule: Q01DX005 (ip), vehicle: saline with Tween-80
[11] = dose: 240.0 mg/kg/injection, schedule: Q01DX005 (ip), vehicle: saline with Tween-80
[12] = dose: 100.0 mg/kg/injection, schedule: Q01DX009 (ip), vehicle: saline with Tween-80
[13] = dose: 200.0 mg/kg/injection, schedule: Q01DX009 (ip), vehicle: saline with Tween-80

Measured: T/C

CN(C)C(=O)ONC(=O)c1ccccc1
inactive: [1] 105 % of control | [2] 109 % of control | [3] 108 % of control

OC1c2ccccc2C(O)c2c1ccc1c2CN(Cc2ccccc2)CC1 (stereo not drawn)
inactive: dose: 60.0 mg/kg/injection, schedule: Q01DX005 (ip), vehicle: Klucel (hydroxypropylcellulose) (HPC) 89 % of control | dose: 120.0 mg/kg/injection, schedule: Q01DX005 (ip), vehicle: Klucel (hydroxypropylcellulose) (HPC) 92 % of control | dose: 240.0 mg/kg/injection, schedule: Q01DX005 (ip), vehicle: Klucel (hydroxypropylcellulose) (HPC) 92 % of control

CC1CN2CCOC2(C)O1 (stereo not drawn)
inactive: [4] 106 % of control | [5] 102 % of control | dose: 240.0 mg/kg/injection, schedule: Q01DX005 (ip), vehicle: saline 101 % of control

CSCCC(NCC(=O)Nc1ccc(S(=O)(=O)c2ccc(NC(=O)CNC(CCSC)C(=O)O)cc2)cc1)C(=O)O (stereo not drawn)
inactive: dose: 50.0 mg/kg/injection, schedule: Q01DX005 (ip), vehicle: Klucel (hydroxypropylcellulose) (HPC) 100 % of control | dose: 100.0 mg/kg/injection, schedule: Q01DX005 (ip), vehicle: Klucel (hydroxypropylcellulose) (HPC) 101 % of control | dose: 200.0 mg/kg/injection, schedule: Q01DX005 (ip), vehicle: Klucel (hydroxypropylcellulose) (HPC) 101 % of control

C1Cc2c3c(c4c(c2C1)CCC4)CCC3
inactive: dose: 25.0 mg/kg/injection, schedule: Q01DX009 (ip), vehicle: Klucel (hydroxypropylcellulose) (HPC) 91 % of control | [1] 95 % of control | [2] 91 % of control | [3] 100 % of control

CCN(CC)[P+](C1=C(Cl)C(=O)C(C#N)=C(C#N)C1=O)(N(CC)CC)N(CC)CC
inactive: dose: 3.1 mg/kg/injection, schedule: Q01DX009 (ip), vehicle: saline with Tween-80 108 % of control | dose: 6.25 mg/kg/injection, schedule: Q01DX009 (ip), vehicle: saline with Tween-80 99 % of control | dose: 12.5 mg/kg/injection, schedule: Q01DX009 (ip), vehicle: saline with Tween-80 99 % of control | [6] 87 % of control | [7] 101 % of control

Nc1c(/C=C/c2ccccc2)[nH]c(=O)[nH]c1=O
inactive: dose: 25.0 mg/kg/injection, schedule: Q04DX002 (ip), vehicle: saline 104 % of control | dose: 50.0 mg/kg/injection, schedule: Q04DX002 (ip), vehicle: saline 105 % of control | [8] 121 % of control and 88 % of control

Cc1cc2[nH]c3c(C#N)c(OC(=O)N(C)C)c(C)c(=O)n3c2cc1C
inactive: dose: 15.0 mg/kg/injection, schedule: Q01DX005 (ip), vehicle: saline with Tween-80 100 % of control | dose: 30.0 mg/kg/injection, schedule: Q01DX005 (ip), vehicle: saline with Tween-80 108 % of control | [9] 100 % of control and 93 % of control

CCN1c2ccccc2CC(CCN(C(C)C)C(C)C)(C(N)=O)c2ccccc21 (stereo not drawn)
inactive: dose: 25.0 mg/kg/injection, schedule: Q04DX002 (ip), vehicle: saline with Tween-80 95 % of control | dose: 50.0 mg/kg/injection, schedule: Q04DX002 (ip), vehicle: saline with Tween-80 95 % of control | dose: 100.0 mg/kg/injection, schedule: Q04DX002 (ip), vehicle: saline with Tween-80 95 % of control

Cc1cccc(NC(=O)N(C(C)C)C(C)C)c1
inactive: dose: 60.0 mg/kg/injection, schedule: Q01DX005 (ip), vehicle: Klucel + Tween-80 100 % of control | dose: 120.0 mg/kg/injection, schedule: Q01DX005 (ip), vehicle: Klucel + Tween-80 97 % of control | dose: 240.0 mg/kg/injection, schedule: Q01DX005 (ip), vehicle: Klucel + Tween-80 89 % of control

CCCCCCCCCC(=O)C(=O)c1ccc(O)cc1O
inactive: [1] 94 % of control | [2] 93 % of control | [3] 94 % of control

COC1=CCC=C(C(C)(C)C)C1
inactive: [9] 98 % of control | [10] 94 % of control | [11] 103 % of control

BrCC1(CBr)COC1
inactive: dose: 50.0 mg/kg/injection, schedule: Q01DX001 (ip), vehicle: Klucel (hydroxypropylcellulose) (HPC) 95 % of control | dose: 100.0 mg/kg/injection, schedule: Q01DX001 (ip), vehicle: Klucel (hydroxypropylcellulose) (HPC) 107 % of control | dose: 200.0 mg/kg/injection, schedule: Q01DX001 (ip), vehicle: Klucel (hydroxypropylcellulose) (HPC) 100 % of control

NS(=O)(=O)c1ccc(N=Nc2c(O)n(-c3ccccc3)n(-c3ccccc3)c2=O)cc1
inactive: dose: 100.0 mg/kg/injection, schedule: Q04DX003 (ip), vehicle: Klucel (hydroxypropylcellulose) (HPC) 107 % of control | dose: 200.0 mg/kg/injection, schedule: Q04DX003 (ip), vehicle: Klucel (hydroxypropylcellulose) (HPC) 102 % of control | dose: 400.0 mg/kg/injection, schedule: Q04DX003 (ip), vehicle: Klucel (hydroxypropylcellulose) (HPC) 102 % of control

COC1=Nc2ccccc2N2CCN=C12
inactive: dose: 12.5 mg/kg/injection, schedule: Q01DX009 (ip), vehicle: saline 86 % of control | dose: 25.0 mg/kg/injection, schedule: Q01DX009 (ip), vehicle: saline 100 % of control | dose: 50.0 mg/kg/injection, schedule: Q01DX009 (ip), vehicle: saline 100 % of control

O=[n+]1c2c(n([O-])c3ccccc31)CCCCC2
inactive: dose: 100.0 mg/kg/injection, schedule: Q04DX003 (ip), vehicle: saline with Tween-80 99 % of control | dose: 200.0 mg/kg/injection, schedule: Q04DX003 (ip), vehicle: saline with Tween-80 101 % of control | dose: 400.0 mg/kg/injection, schedule: Q04DX003 (ip), vehicle: saline with Tween-80 92 % of control

COc1ccc(C(=O)CCS(=O)O)cc1
inactive: [8] 100 % of control | dose: 200.0 mg/kg/injection, schedule: Q04DX002 (ip), vehicle: saline 100 % of control | dose: 400.0 mg/kg/injection, schedule: Q04DX002 (ip), vehicle: saline 99 % of control

NNC(=O)C(O)C(O)C(=O)NN (stereo not drawn)
inactive: dose: 30.0 mg/kg/injection, schedule: Q01DX005 (ip), vehicle: saline 97 % of control | dose: 30.0 mg/kg/injection, schedule: Q01DX009 (ip), vehicle: saline 103 % of control | [4] 100 % of control | dose: 60.0 mg/kg/injection, schedule: Q01DX009 (ip), vehicle: saline 97 % of control | [5] 94 % of control | dose: 120.0 mg/kg/injection, schedule: Q01DX009 (ip), vehicle: saline 105 % of control

CN1C=NNC(=O)c2ccccc21
inactive: [7] 86 % of control | [12] 87 % of control | [13] 102 % of control

C(C#Cc1ccccc1)#Cc1ccccc1
inactive: [6] 98 % of control | [7] 99 % of control | [12] 96 % of control | [13] 98 % of control

COC(=O)c1cc(-c2ccc(C)cc2)c2c(=O)n(-c3ccccc3)[nH]c2n1
inactive: [9] 100 % of control | [10] 100 % of control | [11] 97 % of control

Nc1cccnc1C1OCCO1
inactive: dose: 50.0 mg/kg/injection, schedule: Q01DX009 (ip), vehicle: other 100 % of control | dose: 100.0 mg/kg/injection, schedule: Q01DX009 (ip), vehicle: other 103 % of control

CC(C)(O)c1ccccc1S(=O)c1ccccc1C(C)(C)O
inactive: dose: 100.0 mg/kg/injection, schedule: Q01DX001 (ip), vehicle: saline with Tween-80 93 % of control | dose: 200.0 mg/kg/injection, schedule: Q01DX001 (ip), vehicle: saline with Tween-80 95 % of control | dose: 400.0 mg/kg/injection, schedule: Q01DX001 (ip), vehicle: saline with Tween-80 98 % of control

CCOC(=O)c1cc2c(nc1C)-c1cc(Cl)ccc1OC2OCc1ccccc1 (stereo not drawn)
inactive: [9] 88 % of control | [10] 94 % of control | [11] 97 % of control
